Assay results as given in PubChem BioAssay AID256 (DTP/NCI, 2004).
Toxic doses and inconclusive results are not listed.

Tested on: CD2F1 mice, L1210 leukemia ip, survival T/C
Test: NCI In Vivo Anticancer Drug Screen. Data for tumor model L1210 Leukemia (intraperitoneal) in CD2F1 (CDF1) mice
Conditions: higher = longer survival
Summary of the method: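 Tumor-bearing mice (transplanted tumor) were split into treated and vehicle control groups, and the measured endpoint of each treated group was divided by that of its vehicle controls.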

[1] = endpoint: mean survival time, dose: 75.0 mg/kg/injection, schedule: Q01DX001 (ip), vehicle: saline
[2] = endpoint: mean survival time, dose: 3.13 mg/kg/injection, schedule: Q01DX009 (ip), vehicle: saline
[3] = endpoint: mean survival time, dose: 100.0 mg/kg/injection, schedule: Q01DX001 (ip), vehicle: saline with Tween-80
[4] = endpoint: mean survival time, dose: 100.0 mg/kg/injection, schedule: Q01DX009 (ip), vehicle: saline with Tween-80
[5] = endpoint: mean survival time, dose: 200.0 mg/kg/injection, schedule: Q01DX001 (ip), vehicle: saline with Tween-80
[6] = endpoint: mean survival time, dose: 200.0 mg/kg/injection, schedule: Q01DX009 (ip), vehicle: saline with Tween-80
[7] = endpoint: mean survival time, dose: 400.0 mg/kg/injection, schedule: Q01DX001 (ip), vehicle: saline with Tween-80

`CCCCOCCN1CCN(CCCN2c3ccccc3Sc3ccc(C(F)(F)F)cc32)CC1` was tested, and the T/C (endpoint: mean survival time, dose: 2.3 mg/kg/injection, schedule: Q01DX001 (ip), vehicle: saline) was 106 % of control, the T/C (endpoint: mean survival time, dose: 3.5 mg/kg/injection, schedule: Q01DX001 (ip), vehicle: saline) was 100 % of control and the T/C (endpoint: mean survival time, dose: 5.2 mg/kg/injection, schedule: Q01DX001 (ip), vehicle: saline) was 105 % of control. For the same molecule, the T/C (endpoint: mean survival time, dose: 7.2 mg/kg/injection, schedule: Q01DX001 (ip), vehicle: saline) was 112 % of control, the T/C (endpoint: mean survival time, dose: 11.0 mg/kg/injection, schedule: Q01DX001 (ip), vehicle: saline) was 107 % of control and the T/C (endpoint: mean survival time, dose: 16.0 mg/kg/injection, schedule: Q01DX001 (ip), vehicle: saline) was 104 % of control.

In the case of `Cc1cc2nc3c4ccccc4n(C)c3nc2cc1C`, the T/C (endpoint: mean survival time, dose: 50.0 mg/kg/injection, schedule: Q01DX009 (sc), vehicle: Klucel (hydroxypropylcellulose) (HPC)) is reported as 101 % of control, the T/C (endpoint: mean survival time, dose: 100.0 mg/kg/injection, schedule: Q01DX009 (sc), vehicle: Klucel (hydroxypropylcellulose) (HPC)) is reported as 104 % of control and the T/C (endpoint: mean survival time, dose: 200.0 mg/kg/injection, schedule: Q01DX009 (sc), vehicle: Klucel (hydroxypropylcellulose) (HPC)) is reported as 104 % of control.

In the case of `CC(C)(Cl)S(=O)c1ccccc1` (stereo not given), the T/C (endpoint: mean survival time, dose: 100.0 mg/kg/injection, schedule: Q04DX003 (ip), vehicle: saline with Tween-80) is reported as 93 % of control, the T/C (endpoint: mean survival time, dose: 200.0 mg/kg/injection, schedule: Q04DX003 (ip), vehicle: saline with Tween-80) is reported as 93 % of control and the T/C (endpoint: mean survival time, dose: 400.0 mg/kg/injection, schedule: Q04DX003 (ip), vehicle: saline with Tween-80) is reported as 95 % of control.

With `COc1cc(NCCCCNC(C)C)c2ncccc2c1` the T/C [1] was 95 % of control.

`O=C(NC(CSC(c1ccc(Cl)cc1)c1ccc(Cl)cc1)C(=O)O)OCc1ccccc1` (stereo not given) was tested, and the T/C [1] was 91 % of control and the T/C (endpoint: mean survival time, dose: 300.0 mg/kg/injection, schedule: Q01DX001 (ip), vehicle: saline) was 97 % of control.

For `CCCCOC(=O)c1n[nH]c(C)c1N=NN1CCOCC1`, the T/C (endpoint: mean survival time, dose: 75.0 mg/kg/injection, schedule: Q01DX001 (ip), vehicle: other) was 105 % of control, the T/C (endpoint: mean survival time, dose: 150.0 mg/kg/injection, schedule: Q01DX001 (ip), vehicle: other) was 97 % of control and the T/C (endpoint: mean survival time, dose: 300.0 mg/kg/injection, schedule: Q01DX001 (ip), vehicle: other) was 103 % of control.

For `CN(C)c1cc2c3c(c1)CCCN3CCC2`, the T/C [2] was 98 % of control, the T/C (endpoint: mean survival time, dose: 6.25 mg/kg/injection, schedule: Q01DX009 (ip), vehicle: saline) was 109 % of control and the T/C (endpoint: mean survival time, dose: 12.5 mg/kg/injection, schedule: Q01DX009 (ip), vehicle: saline) was 96 % of control.

For `CC(C)N(CCNc1nc(C(Cl)(Cl)Cl)nc2ccc(Cl)cc12)C(C)C`, the T/C [3] was 103 % of control, the T/C [4] was 96 % of control and the T/C [5] was 94 % of control. For the same molecule, the T/C [6] was 96 % of control, the T/C [7] was 103 % of control and the T/C (endpoint: mean survival time, dose: 400.0 mg/kg/injection, schedule: Q01DX009 (ip), vehicle: saline with Tween-80) was 95 % of control.

`COc1ccc(C=NCCO)cc1OC` was tested, and the T/C (endpoint: median survival time, dose: 50.0 mg/kg/injection, schedule: Q04DX002 (ip), vehicle: saline with Tween-80) was 111 % of control, the T/C (endpoint: median survival time, dose: 100.0 mg/kg/injection, schedule: Q04DX002 (ip), vehicle: saline with Tween-80) was 100 % of control and the T/C (endpoint: median survival time, dose: 200.0 mg/kg/injection, schedule: Q04DX002 (ip), vehicle: saline with Tween-80) was 100 % of control. For the same molecule, the T/C (endpoint: median survival time, dose: 400.0 mg/kg/injection, schedule: Q04DX002 (ip), vehicle: saline with Tween-80) was 100 % of control.

`CC(C)(C)c1cc([N+](C)(C)C)cc(C(C)(C)C)n1` was tested, and the T/C (endpoint: mean survival time, dose: 12.5 mg/kg/injection, schedule: Q04DX002 (ip), vehicle: saline with Tween-80) was 96 % of control, the T/C (endpoint: mean survival time, dose: 25.0 mg/kg/injection, schedule: Q04DX002 (ip), vehicle: saline with Tween-80) was 92 % of control and the T/C (endpoint: mean survival time, dose: 50.0 mg/kg/injection, schedule: Q04DX002 (ip), vehicle: saline with Tween-80) was 100 % of control.

For `O=C1C(CO)(CO)CCC1(CO)CO`, the T/C (endpoint: mean survival time, dose: 100.0 mg/kg/injection, schedule: Q01DX009 (ip), vehicle: saline) was 91 % of control, the T/C (endpoint: mean survival time, dose: 200.0 mg/kg/injection, schedule: Q01DX009 (ip), vehicle: saline) was 93 % of control and the T/C (endpoint: mean survival time, dose: 400.0 mg/kg/injection, schedule: Q01DX009 (ip), vehicle: saline) was 98 % of control.

For `O=C(CN1CC1)NCCCCCCCNC(=O)CN1CC1`, the T/C (endpoint: mean survival time, dose: 14.6 mg/kg/injection, schedule: Q01DX001 (ip), vehicle: carboxymethylcellulose (CMC)) was 158 % of control and the T/C (endpoint: mean survival time, dose: 50.0 mg/kg/injection, schedule: Q01DX001 (ip), vehicle: carboxymethylcellulose (CMC)) was 150 % of control.

With `O=C1CC(c2ccccc2)C(c2ccccc2)N1Cc1ccccc1` (stereo not given) the T/C (endpoint: mean survival time, dose: 100.0 mg/kg/injection, schedule: Q04DX003 (ip), vehicle: other) was 93 % of control, the T/C (endpoint: mean survival time, dose: 200.0 mg/kg/injection, schedule: Q04DX003 (ip), vehicle: other) was 93 % of control and the T/C (endpoint: mean survival time, dose: 400.0 mg/kg/injection, schedule: Q04DX003 (ip), vehicle: other) was 97 % of control.

For `COc1ccc(C2=CCN(c3ccc(C)cc3)P(=O)(N(CCCl)CCCl)O2)cc1` (stereo not given), the T/C (endpoint: mean survival time, dose: 31.25 mg/kg/injection, schedule: Q01DX001 (ip), vehicle: saline) was 100 % of control, the T/C (endpoint: mean survival time, dose: 62.5 mg/kg/injection, schedule: Q01DX001 (ip), vehicle: saline) was 100 % of control and the T/C (endpoint: mean survival time, dose: 125.0 mg/kg/injection, schedule: Q01DX001 (ip), vehicle: saline) was 97 % of control. For the same molecule, the T/C (endpoint: mean survival time, dose: 250.0 mg/kg/injection, schedule: Q01DX001 (ip), vehicle: saline) was 102 % of control and the T/C (endpoint: mean survival time, dose: 500.0 mg/kg/injection, schedule: Q01DX001 (ip), vehicle: saline) was 91 % of control.

For `CC(=O)[O][Sb]([CH3])([CH3])([CH3])[O]C(C)=O`, the T/C (endpoint: mean survival time, dose: 100.0 mg/kg/injection, schedule: Q04DX002 (ip), vehicle: saline with Tween-80) was 110 % of control, the T/C (endpoint: mean survival time, dose: 200.0 mg/kg/injection, schedule: Q04DX002 (ip), vehicle: saline with Tween-80) was 98 % of control and the T/C (endpoint: mean survival time, dose: 400.0 mg/kg/injection, schedule: Q04DX002 (ip), vehicle: saline with Tween-80) was 103 % of control.

In the case of `C[Si](C)(C)OSc1ccccc1[N+](=O)[O-]`, the T/C (endpoint: mean survival time, dose: 12.5 mg/kg/injection, schedule: Q01DX009 (ip), vehicle: Klucel (hydroxypropylcellulose) (HPC)) is reported as 95 % of control, the T/C (endpoint: mean survival time, dose: 25.0 mg/kg/injection, schedule: Q01DX009 (ip), vehicle: Klucel (hydroxypropylcellulose) (HPC)) is reported as 97 % of control and the T/C (endpoint: mean survival time, dose: 50.0 mg/kg/injection, schedule: Q01DX009 (ip), vehicle: Klucel (hydroxypropylcellulose) (HPC)) is reported as 100 % of control. The T/C (endpoint: mean survival time, dose: 100.0 mg/kg/injection, schedule: Q01DX009 (ip), vehicle: Klucel (hydroxypropylcellulose) (HPC)) was 93 % of control, the T/C (endpoint: mean survival time, dose: 200.0 mg/kg/injection, schedule: Q01DX009 (ip), vehicle: Klucel (hydroxypropylcellulose) (HPC)) was 92 % of control and the T/C (endpoint: mean survival time, dose: 400.0 mg/kg/injection, schedule: Q01DX009 (ip), vehicle: Klucel (hydroxypropylcellulose) (HPC)) was 91 % of control.

For `O=C(NC/C=C/Br)Nc1cccc2c1CCCC2`, the T/C (endpoint: mean survival time, dose: 50.0 mg/kg/injection, schedule: Q01DX009 (ip), vehicle: saline with Tween-80) was 94 % of control, the T/C [3] was 89 % of control and the T/C [4] was 99 % of control. For the same molecule, the T/C [5] was 86 % of control and the T/C [6] was 88 % of control.

In the case of `C=CCSc1nc(N)nc2nc[nH]c12`, the T/C (endpoint: mean survival time, dose: 100.0 mg/kg/injection, schedule: Q04DX003 (ip), vehicle: saline sonified) is reported as 107 % of control and the T/C (endpoint: mean survival time, dose: 200.0 mg/kg/injection, schedule: Q04DX003 (ip), vehicle: saline sonified) is reported as 96 % of control.

For `C/C=C/C[P+](Cc1ccccc1)(c1ccccc1)c1ccccc1`, the T/C (endpoint: mean survival time, dose: 0.39 mg/kg/injection, schedule: Q01DX009 (ip), vehicle: saline) was 97 % of control, the T/C (endpoint: mean survival time, dose: 0.78 mg/kg/injection, schedule: Q01DX009 (ip), vehicle: saline) was 96 % of control and the T/C (endpoint: mean survival time, dose: 1.56 mg/kg/injection, schedule: Q01DX009 (ip), vehicle: saline) was 102 % of control. For the same molecule, the T/C [2] was 103 % of control.

`COc1cccc2c1C(=O)c1c(O)c3c(c(O)c1C2=O)C[C@@](O)(/C(C)=N\NC=O)C[C@@H]3OC1CC(N)C(O)C(C)O1` (stereo not given in full) was tested, and the T/C (endpoint: mean survival time, dose: 0.65 mg/kg/injection, schedule: Q01DX009 (ip), vehicle: saline) was 113 % of control, the T/C (endpoint: mean survival time, dose: 1.0 mg/kg/injection, schedule: Q01DX009 (ip), vehicle: saline) was 106 % of control and the T/C (endpoint: mean survival time, dose: 1.08 mg/kg/injection, schedule: Q01DX009 (ip), vehicle: saline) was 118 % of control. The T/C (endpoint: mean survival time, dose: 1.8 mg/kg/injection, schedule: Q01DX009 (ip), vehicle: saline) was 114 % of control, the T/C (endpoint: mean survival time, dose: 2.0 mg/kg/injection, schedule: Q01DX009 (ip), vehicle: saline) was 124 % of control and the T/C (endpoint: mean survival time, dose: 3.0 mg/kg/injection, schedule: Q04DX003 (ip), vehicle: saline) was 123 % of control. The T/C (endpoint: mean survival time, dose: 4.0 mg/kg/injection, schedule: Q01DX009 (ip), vehicle: saline) was 123 % of control, the T/C (endpoint: mean survival time, dose: 5.0 mg/kg/injection, schedule: Q04DX003 (ip), vehicle: saline) was 120 % of control and the T/C (endpoint: mean survival time, dose: 16.0 mg/kg/injection, schedule: Q01DX009 (ip), vehicle: saline) was 161 % of control. For the same molecule, the T/C (endpoint: mean survival time, dose: 22.2 mg/kg/injection, schedule: Q04DX003 (ip), vehicle: saline) was 176 % of control.

`COCC(=O)C(C(C)=O)C(c1ccc(OC)cc1)C(C(C)=O)C(=O)COC` (stereo not given) was tested, and the T/C [3] was 101 % of control, the T/C [5] was 98 % of control and the T/C [7] was 95 % of control.
